Data: patent publication US20250360130A1, “METHODS OF TREATING INDOLENT SYSTEMIC MASTOCYTOSIS” (Telios Pharma Inc., priority 2024, published 2025)

Experiments:
[1] = test system: healthy mast cells and ISM mast cells; assay: Potency across healthy mast cells and ISM mast cells (FIG. 16); assay type: cell-based, human; conditions: presence of SCF, NP-IgE sensitization, NP-BSA stimulation
Protocol: Healthy BM-MC donor 0166 and ISM WB-MC 1061-004 17 Jan. 2024 and 17 Oct. 2024. Experiments performed in the presence of SCF. Sensitization and Stimulation: NP-IgE (100 ng/ml) 18 hrs, NP-BSA (0.5 ng/ml) for 15 min at 37° C. (CD63, CD203, pBTK and histamine) or 4 min at RT (Calcium Flux).

MRGPRX2 = assay: MRGPRX2-mediated cytokine production in ISM-like mast cells; assay type: cell-based, human
Protocol: (§1) Human mast cells were differentiated from bone marrow CD34+ cells from four healthy donors and were cultured in the presence of SCF (100 ng/mL) to mimic mast cells in ISM and treated with Compound 128 for two hours prior to stimulation. Mas-related G protein-coupled receptor (MRGPRX2) agonists, Compound 48/80 (C48/80; a product of N-methyl-p-methoxyphenethylamine with formaldehyde) or Substance P (SP) were used to activate the MRGPRX2 pathway. For pBTK test, cells were stimulated with C48/80 (10 μg/mL) for ten minutes at 37° C. and cells were stained. The median fluorescence intensity of phosphorylated BTK was measured. The fold change over unstimulated control for pBTK was calculated. For cytokine test, cells were stimulated with C48/80 (10 μg/mL) or SP (30 μM) for four hours at 37° C. Supernatant was collected and cytokine levels were measured using the BD Cytometric Bead Array (CBA) human soluble protein master buffer kit (Becton Dickinson) and BD CBA human soluble protein flex sets for IL-8, MCP-1, GM-CSF and IL-13 (Becton Dickinson). Cytokine levels were measured and normalized to percent of control, with 0% representing the level of the unstimulated control.

basophils [2] = assay: Basophil Activation Test (BAT), CD63, whole blood; assay type: cell-based, human; conditions: 24 hours versus 2 hours drug exposure
Protocol: (§2) The BAT was conducted as set forth in Santos (2021) Allergy, 76:2420-2432. Blood from six healthy donors was drawn and Compound 128 was added at various concentrations (10 μM, 3.16 μM, 1 μM, 0.3 μM, 0.1 μM, 0.03 μM, or 0 μM). Blood samples were gently rocked at room temperature for 2 hours, 24 hours, or 48 hours. The BAT assay using the Flow Cast Basophil Activation Kit (Buhlmann Diagnostics; Catalog #B-CCR-STCON) was then conducted following manufacturer instructions by (1) stimulating the blood with anti-FcεR stimulation control in stimulation buffer with IL-3 and staining cells for CCR3 and CD63 for 15 minutes at 37° C., (2) lysing red blood cells and fixing cells with Lysing Reagent at room temperature for 10 minutes, (3) washing cells with Wash Buffer, and (4) acquiring data on a flow cytometer. Activated basophils were defined as CCR3+, low side scatter and CD63+. Percent of activated basophils was calculated as number of activated basophils over the total number of basophils. A four-parameter logistic regression was applied to determine the EC50 and EC90.

mast cells = assay: Monomeric IgE-mediated degranulation and cytokine production in mast cells; assay type: cell-based, human; conditions: mast cells from a healthy donor, 2 hours treatment, myeloma IgE with SCF
Protocol: Mast cells from a healthy donor were starved of SCF for 18 hours and treated with Compound 128 for 2 hours. Mast cells were stimulated with SCF (100 ng/ml) or myeloma IgE (3 μg/ml; Millipore Sigma) alone or in combination for 30 minutes (CD63 and Histamine) or 24 hours (cytokine production), respectively. For the histamine and cytokine test, supernatant was collected and the levels of histamine and cytokines were measured as set forth in Example 4 for histamine and Example 7 for cytokines. For the CD63 test, the cells were stained for CD63, data was acquired on a flow cytometer and percent activated mast cells calculated as set forth in Example 4. […] The monomeric IgE contribution to degranulation and cytokine production is inhibited by Compound 128.

basophils [3] = assay: Comparison of BTK inhibitors by BAT (CD63, CD203c); assay type: cell-based, human; conditions: concentration of 1 μM, 2 hours, blood from a healthy donor
Protocol: as §2, with “The” for “The BAT was conducted as set forth in Santos (2021) Allergy, 76:2420-2432. Blood from six healthy donors was drawn and Compound 128 was added at various concentrations (10 μM, 3.16 μM, 1 μM, 0.3 μM, 0.1 μM, 0.03 μM, or 0 μM). Blood samples were gently rocked at room temperature for 2 hours, 24 hours, or 48 hours. The”
Blood samples were gently rocked at room temperature for 2 hours. […] Activated basophils were also defined as CCR3+, low side scatter and CD203c+.

BTK = BTK (Homo sapiens, UniProt Q06187); assay: MRGPRX2-induced BTK phosphorylation in ISM-like mast cells; assay type: cell-based; set-up: Human mast cells were differentiated from bone marrow CD34+ cells from six healthy donors; endogenous in cells; host or cells: human mast cells differentiated from bone marrow CD34+ cells of healthy donors, cultured with SCF; conditions: 0.1 μM, C48/80 stimulation
Protocol: as §1

Sequence of BTK (Q06187 whole entry): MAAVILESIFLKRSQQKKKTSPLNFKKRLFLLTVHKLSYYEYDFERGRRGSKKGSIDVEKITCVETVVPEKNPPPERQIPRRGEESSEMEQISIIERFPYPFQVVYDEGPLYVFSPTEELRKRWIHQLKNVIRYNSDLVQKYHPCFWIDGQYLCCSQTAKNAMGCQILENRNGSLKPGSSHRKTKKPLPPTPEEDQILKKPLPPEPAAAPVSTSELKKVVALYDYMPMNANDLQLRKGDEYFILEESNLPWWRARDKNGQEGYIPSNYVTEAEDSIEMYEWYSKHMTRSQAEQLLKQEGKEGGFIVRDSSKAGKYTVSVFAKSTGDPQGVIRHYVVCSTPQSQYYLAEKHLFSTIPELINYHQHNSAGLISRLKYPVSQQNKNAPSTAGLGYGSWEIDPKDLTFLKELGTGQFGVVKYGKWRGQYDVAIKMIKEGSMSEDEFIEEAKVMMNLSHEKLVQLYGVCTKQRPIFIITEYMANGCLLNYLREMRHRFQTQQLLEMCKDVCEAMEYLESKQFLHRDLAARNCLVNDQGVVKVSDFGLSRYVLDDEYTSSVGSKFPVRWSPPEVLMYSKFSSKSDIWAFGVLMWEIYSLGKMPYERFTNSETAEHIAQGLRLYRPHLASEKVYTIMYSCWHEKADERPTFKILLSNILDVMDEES

C=CC(=O)N1CCC(F)(CNc2ncnc(N)c2-c2ccc(Oc3ccccc3)cc2)CC1 [Compound 128, 1-(4-(((6-amino-5-(4-phenoxyphenyl)pyrimidin-4-yl)amino)methyl)-4-fluoropiperidin-1-yl)prop-2-en-1-one]
potency in healthy versus ISM mast cells (CD63, CD203, pBTK, histamine, calcium flux) [1]: equipotent | MRGPRX2-mediated cytokine production (MRGPRX2; 0.1 μM): partially inhibited | MRGPRX2-mediated cytokine production (MRGPRX2; 0.5 and 1 μM): inhibition of cytokine production was increased | C48/80-mediated cytokine production (MRGPRX2; Compound 48/80 agonist): partial inhibition | SP-mediated cytokine production (MRGPRX2; Substance P (SP) agonist): fully inhibited | potency increase after 24 hours drug exposure (basophils [2]): approximately 4 fold | monomeric IgE contribution to degranulation and cytokine production (mast cells): inhibited | basophil activation (CD63+, CD203c+) (basophils [3]): fully inhibits basophil activation | MRGPRX2-induced BTK phosphorylation (BTK): inhibited
